Measurements: paper PMC11674187, “Inhibitory Effects of Cenobamate on Multiple Human Cardiac Ion Channels and Possible Arrhythmogenic Consequences” (Biomolecules, 2024)
Where “and” joins values, the source holds several entries; their conditions need not be identical. Equal entries are not always repeated. Where two headings read alike, the source gives them in different places.

Experiments:
hNav1.5 = target: T1, hNav1.5 (Homo sapiens, UniProt Q14524); experiment: State-dependent blocking/unblocking kinetics of Nav1.5 (use-dependent block protocol, inactivation time constants); type: cell-based
T1 construct: host or cells: HEK293T
T1 sequence (Q14524 whole entry): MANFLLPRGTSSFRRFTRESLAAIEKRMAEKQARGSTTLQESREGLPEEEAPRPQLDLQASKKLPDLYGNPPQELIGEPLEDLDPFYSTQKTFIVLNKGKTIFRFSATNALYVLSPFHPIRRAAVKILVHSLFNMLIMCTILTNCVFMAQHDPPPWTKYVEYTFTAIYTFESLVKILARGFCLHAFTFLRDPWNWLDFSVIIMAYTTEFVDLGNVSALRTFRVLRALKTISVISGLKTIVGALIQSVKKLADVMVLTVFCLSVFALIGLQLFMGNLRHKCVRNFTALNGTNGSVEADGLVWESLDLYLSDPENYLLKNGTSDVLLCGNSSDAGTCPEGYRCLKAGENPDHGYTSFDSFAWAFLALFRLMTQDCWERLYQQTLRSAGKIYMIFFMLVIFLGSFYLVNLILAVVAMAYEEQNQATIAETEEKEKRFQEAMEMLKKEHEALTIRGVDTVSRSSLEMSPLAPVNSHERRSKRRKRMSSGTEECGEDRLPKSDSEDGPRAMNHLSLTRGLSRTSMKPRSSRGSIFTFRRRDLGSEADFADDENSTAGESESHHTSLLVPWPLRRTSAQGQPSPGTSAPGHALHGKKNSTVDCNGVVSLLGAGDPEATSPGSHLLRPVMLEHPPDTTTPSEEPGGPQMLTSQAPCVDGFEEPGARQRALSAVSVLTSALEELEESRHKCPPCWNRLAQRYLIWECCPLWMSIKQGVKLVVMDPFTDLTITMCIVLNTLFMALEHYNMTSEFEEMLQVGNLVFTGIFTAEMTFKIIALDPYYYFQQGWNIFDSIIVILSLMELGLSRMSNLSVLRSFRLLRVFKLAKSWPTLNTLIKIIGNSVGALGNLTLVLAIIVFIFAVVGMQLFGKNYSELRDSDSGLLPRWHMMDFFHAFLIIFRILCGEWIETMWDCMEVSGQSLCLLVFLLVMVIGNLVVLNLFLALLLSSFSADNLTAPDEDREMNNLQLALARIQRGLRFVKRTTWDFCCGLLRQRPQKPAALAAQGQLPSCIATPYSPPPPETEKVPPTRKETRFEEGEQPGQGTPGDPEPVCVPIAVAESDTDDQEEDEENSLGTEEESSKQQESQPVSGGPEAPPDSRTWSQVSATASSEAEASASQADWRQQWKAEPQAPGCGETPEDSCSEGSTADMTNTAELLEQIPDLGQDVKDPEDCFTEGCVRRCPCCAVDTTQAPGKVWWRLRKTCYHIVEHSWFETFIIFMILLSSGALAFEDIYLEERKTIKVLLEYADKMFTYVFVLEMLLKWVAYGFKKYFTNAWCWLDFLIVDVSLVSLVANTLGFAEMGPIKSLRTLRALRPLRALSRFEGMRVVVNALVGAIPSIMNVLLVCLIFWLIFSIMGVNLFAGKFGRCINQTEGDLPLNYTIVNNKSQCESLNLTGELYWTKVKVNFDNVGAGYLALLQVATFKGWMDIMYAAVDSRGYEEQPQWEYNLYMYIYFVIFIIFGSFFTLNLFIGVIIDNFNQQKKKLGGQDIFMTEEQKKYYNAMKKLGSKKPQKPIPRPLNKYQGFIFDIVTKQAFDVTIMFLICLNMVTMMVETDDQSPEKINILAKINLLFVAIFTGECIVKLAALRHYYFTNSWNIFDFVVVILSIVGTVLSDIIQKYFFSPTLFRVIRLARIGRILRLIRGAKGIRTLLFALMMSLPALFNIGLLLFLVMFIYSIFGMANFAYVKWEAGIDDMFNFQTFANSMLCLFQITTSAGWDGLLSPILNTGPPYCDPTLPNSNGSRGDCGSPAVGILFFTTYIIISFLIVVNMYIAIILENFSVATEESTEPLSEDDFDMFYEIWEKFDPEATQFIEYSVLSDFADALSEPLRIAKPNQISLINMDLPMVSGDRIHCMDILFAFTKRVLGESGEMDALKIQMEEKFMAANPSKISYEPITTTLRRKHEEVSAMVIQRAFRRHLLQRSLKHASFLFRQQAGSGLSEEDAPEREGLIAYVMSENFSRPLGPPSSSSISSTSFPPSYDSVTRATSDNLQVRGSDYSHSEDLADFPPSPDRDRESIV
Method: Manual whole-cell patch-clamp experiments were performed at room temperature, with equipment as described in previous studies. Pipettes were pulled from Clark borosilicate glass capillaries with inner filament (GC150F-10, Harvard Apparatus, Holliston, MA, USA) and had typical resistances of 2–3 MΩ. Recordings were performed with a WPC-100 resistive feedback amplifier (ESF electronic, Göttingen, Germany) or an Axopatch 200B amplifier (Axon Instruments—Molecular Devices, San Jose, CA, USA) connected to a Digidata 1322A interface driven by the pClamp 8.2 Clampex module (Axon Instruments, part of Molecular Devices, San Jose, CA, USA). For different types of ion channel, we applied specific voltage-clamp protocols as follows: • - For hERG, a standard two-step activation protocol was used: holding at −70 mV, a 100 ms step at −50 mV used as current reference for measurements, a 2 s depolarizing step at +40 mV, followed by a 2 s step at −50 mV to elicit the peak hERG current by rapid recovery from inactivation, repeated sweeps at 10 s intervals, plus specific protocols to assess the voltage dependence of activation and inactivation, as described in Thomet et al., 2021 [11]. • - For hKv7.1 + minK, a general two-step activation protocol was used: holding at −110 mV, a 250 ms step at −80 mV with a brief (50 ms) step at −90 mV at the middle to monitor seal quality, a 3000 ms depolarizing step at +60 mV, followed by a 1000 ms step at −50 mV; repeated sweeps at 20 s intervals. • - For hCav1.2, a pharmacology protocol with holding at −80 mV, a first 100 ms step at −50 mV and a second 200 ms step at 0 mV, repeated sweeps at 20 s intervals with drug application after 5 sweeps if current levels were steady, plus an activation–inactivation protocol with holding at −80 mV, 1000 ms depolarizing steps from −80 to +50 mV in 10 mV increments, followed by 250 ms steps at +10 mV and a return to −80 mV; 14 sweeps at 20 s intervals. • - For hNav1.5, multiple voltage protocols were used, including the following: • - A standard pharmacology protocol with holding at −90 mV, a 20 ms step at −110 mV for seal monitoring, a 40 ms activation step at −10 mV, and repeated sweeps at 1 s intervals.
To estimate state-specific blocking and unblocking kinetics, we applied, initially and during exposure to cenobamate, a special voltage protocol devised for use-dependent block, with repeated brief depolarizing pulses at −10 mV separated by variable intervals at a hyperpolarized potential (−120 mV), with durations between 5 and 50 ms, as described in Section 2. Recordings using this protocol in initial conditions and with cenobamate application are illustrated in Figure S3 of the Supplementary Materials. By noting with td = 10 ms and tr = 5–50 ms the times spent at a depolarized potential and at a resting hyperpolarized potential during each pulse, with on the fraction of available (non-inactivated or blocked) channels that produce the peak Na^+ current during each depolarizing pulse of the sequence, and with τi and τr, the apparent macroscopic time constants of inactivation and recovery from inactivation in control conditions (in the absence of a blocker), we obtained using several approximations a general recurrence formula that allows computation for each experiment of the recovery time constant, knowing the inactivation time constant (obtained by the monoexponential fit of the inactivation part of the recording during the depolarization pulse) and the decay in peak INa amplitude during pulse n relative to the peak amplitude during the preceding pulse (1 − on)/on−1 (detailed explanations in Section S1 of the Supplementary Materials): τr=tr/ln1−e^−td/τi−ln1−on/on−1

[1] = system: voltage-gated sodium channels in rat hippocampal CA3 neurons; details: cited from earlier work; for IC50: newborn rat CA3 hippocampal neurons, ref [22]

Question: For NC(=O)O[C@@H](Cn1ncnn1)c1ccccc1Cl [cenobamate], which “kib (blocking rate, inactivated conformation)” value (hNav1.5) is on record?
Answer: 0.0006698 µM⁻¹ ms⁻¹

Question: What about the “kib (model script)” value (hNav1.5) of the same compound?
Answer: 0.0000006698 nM⁻¹ ms⁻¹

Question: And the “kib^−1 (unblocking rate, inactivated conformation)” value (hNav1.5)?
Answer: 0.1825 ms^−1

Question: And the “kob (blocking rate, open conformation)” value (hNav1.5)?
Answer: 0.00215 µM⁻¹ ms⁻¹

Question: What about the “kob (model script)” value (hNav1.5) of the same compound?
Answer: 0.00000215 nM⁻¹ ms⁻¹

Question: And the “kob^−1 (unblocking rate, open conformation)” value (hNav1.5)?
Answer: 0.189 ms^−1

Question: What about the Kd (hNav1.5; Kd (I)) of the same compound?
Answer: 273 µM

Question: And the Kd (hNav1.5; Kd (O), open conformation, assumed equivalent to IC50 on peak INa)?
Answer: 87.8 µM

Question: And the “1/τib (kib × [D] + kib^−1)” value (hNav1.5; [D] 98.44 µM)?
Answer: 0.2484 ms^−1

Question: And the “est. τib” value (hNav1.5; blocking/unblocking time constant of inactivated conformation, cenobamate estimated 98.44 µM, per experiment and mean ± SD)?
Answer: 4.08 ms and 3.83 ms and 4.94 ms and 3.25 ms

Question: And the “Rate (1/τ) with cenobamate” value (hNav1.5; cenobamate 200 µM, initial 0.94)?
Answer: 1.56 ms^−1

Question: What about the “τi+ob” value (hNav1.5; use-dependent block protocol during cenobamate (estimated 98.44 µM), per experiment and mean ± SD) of the same compound?
Answer: 2.23 ms and 3.04 ms and 2.94 ms and 1.73 ms

Question: What about the “change in half-inactivation potential” value ([1]; 100 µM cenobamate, ref [22] Nakamura et al., 2019) of the same compound?
Answer: −6 mV

Question: What about the IC50 ([1]; read-out: IC50 on late (persistent) INa) of the same compound?
Answer: 53.1 µM

Question: And the IC50 ([1]; read-out: estimated IC50 on peak (transient) Na+ current)?
Answer: > 500 µM

Question: What about the Kd ([1]; ref [22] Nakamura et al., 2019, read-out: KR (affinity for resting (closed) conformation)) of the same compound?
Answer: 798 µM
